Data published in patent publication US7241799B2, “Cannabimimetic indole derivatives” (University of Connecticut, priority 1999, dated 2007).
Read-outs that look alike come from different tables or passages of the source.

Assays:
CB2 receptor = biological target: T1, CB2 receptor (Mus musculus, UniProt P47936); assay: CB2 receptor binding, [3H] CP-55,940 displacement, mouse spleen membranes; conditions: for Ki: mouse spleen membranes, [3H] CP-55,940, read-out: Kl CB2 (converted)
T1 construct: membranes were prepared from frozen mouse spleen; from tissue; host or cells: mouse spleen
Description: (§1) The materials were tested for CB2 receptor binding affinity and for CB1 receptor affinity (to determine selectivity for the CB2 receptor). As used herein, “binding affinity” is represented by the IC50 value which is the concentration of an analog required to occupy the 50% of the total number (Bmax) of the receptors. The lower the IC50 value the higher the binding affinity.
(§2) The treated membranes were subsequently used in the binding assay described below. Approximately 30 μg of membranes were incubated in silanized 96-well microtiter plate with TME containing 0.1% essentially fatty acid-free bovine serum albumin (BSA), 0.8 nM [^3H] CP-55,940, and various concentrations of test materials at […] for 1 hour. The samples were filtered using Packard Filtermate 196 and Whatman GF/C filterplates and washed with wash buffer (TME) containing 0.5% BSA. Radioactivity was detected using MicroScint 20 scintillation cocktail added directly to the dried filterplates, and the filterplates were counted using a Packard Instruments Top-Count. Nonspecific binding was assessed using 100 nM CP-55,940. Data collected from three independent experiments performed with duplicate determinations was normalized between 100% and 0% specific binding for [^3H] CP-55,940, determined using buffer and 100 nM CP-55,940. The normalized data was analyzed using a 4-parameter nonlinear logistic equation to yield IC50 values. Data from at least two independent experiments performed in duplicate was used to calculate IC50 values which were converted to Ki values using the assumptions of Cheng et al, Relationship Between the Inhibition Constant (Ki) and the concentration of Inhibitor which causes 50% Inhibition (IC50) of an Enzymatic Reaction, Biochem. Pharmacol., 22, 3099–3102, (1973), which is incorporated by reference herein.
For the CB2 receptor binding studies, membranes were prepared from frozen mouse spleen essentially according to the procedure of P. R. Dodd et al, A Rapid Method for Preparing Synaptosomes: Comparison with Alternative Procedures, Brain Res., 226, 107–118 (1981) which is incorporated by reference herein. Silanized centrifuge tubes were used throughout to minimize receptor loss due to adsorption. The CB2 binding assay was conducted in the same manner as for the CB1 binding assay. The binding affinities (Ki) were also expressed in nanomoles (nM).

CB1 receptor = biological target: T2, CB1 receptor (Rattus norvegicus, UniProt P20272); assay: CB1 receptor binding, [3H] CP-55,940 displacement, rat forebrain membranes; conditions: for Ki: rat forebrain membranes, 0.8 nM [3H] CP-55,940, read-out: Kl CB1
T2 construct: membranes were prepared from rat forebrain membranes; from tissue; host or cells: rat forebrain
Description: as §1
For the CB1 receptor binding studies, membranes were prepared from rat forebrain membranes according to the procedure of P. R. Dodd et al, A Rapid Method for Preparing Synaptosomes: Comparison with Alternative Procedures, Brain Res., 107–118 (1981). The binding of the novel analogues to the CB1 cannabinoid receptor was assessed as described in W. A. Devane et al, Determination and Characterization of a Cannabinoid Receptor in a Rat Brain, Mol. Pharmacol., 34, 605–613 (1988) and A. Charalambous et al, 5′-azido Δ^8 THC: A Novel Photoaffinity Label for the Cannabinoid Receptor, J. Med. Chem., 35, 3076–3079 (1992) with the following changes. The above articles are incorporated by reference herein.
Membranes, previously frozen at −80° C., were thawed on ice. To the stirred suspension was added three volumes of TME (25 mM Tris-HCl buffer, 5 mM MgCl2 and 1 mM EDTA) at a pH 7.4. The suspension was incubated at 4° C. for 30 min. At the end of the incubation, the membranes were pelleted and washed three times with TME.
as §2

T2 sequence (P20272 whole entry): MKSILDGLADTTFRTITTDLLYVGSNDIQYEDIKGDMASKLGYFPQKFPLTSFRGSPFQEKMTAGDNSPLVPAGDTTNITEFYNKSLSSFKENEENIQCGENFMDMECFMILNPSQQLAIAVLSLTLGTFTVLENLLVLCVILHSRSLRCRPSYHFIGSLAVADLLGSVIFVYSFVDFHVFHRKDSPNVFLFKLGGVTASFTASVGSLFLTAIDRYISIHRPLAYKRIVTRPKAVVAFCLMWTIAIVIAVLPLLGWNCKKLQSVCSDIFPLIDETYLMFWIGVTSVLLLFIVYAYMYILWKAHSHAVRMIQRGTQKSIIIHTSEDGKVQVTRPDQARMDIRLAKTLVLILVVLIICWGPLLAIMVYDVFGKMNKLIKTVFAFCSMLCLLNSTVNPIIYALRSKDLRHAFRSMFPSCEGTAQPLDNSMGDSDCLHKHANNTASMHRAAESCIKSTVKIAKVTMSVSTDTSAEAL
T1 sequence (P47936 whole entry): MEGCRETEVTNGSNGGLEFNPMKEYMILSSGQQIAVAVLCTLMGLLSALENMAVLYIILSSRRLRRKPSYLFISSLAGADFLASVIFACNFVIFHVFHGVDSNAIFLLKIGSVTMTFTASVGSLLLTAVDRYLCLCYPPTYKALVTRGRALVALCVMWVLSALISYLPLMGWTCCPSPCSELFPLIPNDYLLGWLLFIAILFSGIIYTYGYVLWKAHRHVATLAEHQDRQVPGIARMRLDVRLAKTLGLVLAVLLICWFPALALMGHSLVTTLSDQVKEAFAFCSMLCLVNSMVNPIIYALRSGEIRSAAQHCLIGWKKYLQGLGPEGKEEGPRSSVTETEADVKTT

Compound | Ki (CB2 receptor; TABLE 2) | Ki (CB1 receptor; TABLE 2) | Ki (CB2 receptor; TABLE 1, racemic samples) | Ki (CB1 receptor; TABLE 1, racemic samples) | selectivity for the CB2 receptor (CB2 receptor; binding selectivity CB2 versus CB1, from the results in the TABLES) | selectivity for the CB1 receptor (CB1 receptor; binding selectivity CB1 versus CB2, from the results in the TABLES)
CCCCCn1cc(C(=O)c2cc(N=[N+]=[N-])ccc2I)c2ccccc21 [AM1205] | 196 nM | 117 nM |  |  |  | 
Cc1c(C(=O)c2ccccc2I)c2ccccc2n1CCCCCI [AM2229] | 46.2 nM | 116 nM |  |  |  | 
CN1CCCCC1Cn1cc(C(=O)c2cccc3ccccc23)c2ccc(N)cc21 (racemic) [AM1219] |  |  | 31.3 nM | 96.6 nM |  | 
O=C(c1ccccc1I)c1cn(CCCCCN=C=S)c2ccccc12 [AM1201] | 110 nM | 106 nM |  |  |  | 
CN1CCCCC1Cn1cc(C(=O)c2cccc3ccccc23)c2ccc(N=[N+]=[N-])cc21 (racemic) [AM1224] |  |  | 0.73 nM | 20.2 nM |  | 
CN1CCCCC1Cn1cc(C(=O)c2cccc3ccccc23)c2ccccc21 (centres unmarked) [AM1296] |  |  | 3.88 nM | 7.57 nM |  | 
O=C(c1ccccc1I)c1cn(CCCCCO)c2ccccc12 [AM693] | 526 nM | 835 nM |  |  |  | 
CCCCCn1c(C)c(C(=O)c2ccc(N(C)C)c3ccccc23)c2ccccc21 [AM1256] | 18.6 nM | 4.74 nM |  |  |  | 
CN1CCCCC1Cn1cc(C(=O)c2cc3ccc4cccc5ccc(c2)c3c45)c2ccccc21 (racemic) [AM1253] |  |  | 126 nM | 60.3 nM |  | 
CCCCn1c(C)c(C(=O)c2ccccc2I)c2ccccc21 [AM683] | 281 nM | 272 nM |  |  |  | 
O=C(c1cccc2ccccc12)c1cn(CCCI)c2ccccc12 [AM1292] | 18.1 nM | 3.1 nM |  |  |  | 
Cc1c(C(=O)c2ccccc2I)c2ccc([N+](=O)[O-])cc2n1CC1CCCCN1C (racemic) [AM664] |  |  | 80 nM | 40 nM |  | 
O=C(c1cccc2ccccc12)c1cn(CCCCCO)c2ccccc12 [AM2202] | 111 nM | 33.1 nM |  |  |  | 
Cc1c(C(=O)c2ccccc2I)c2ccccc2n1CCCCCN=C=S [AM2230] | 29.5 nM | 195 nM |  |  | high selectivity for the CB2 receptor | 
Cc1c(C(=O)c2ccccc2I)c2ccc(N=[N+]=[N-])cc2n1CC1CCCCN1C (racemic) [AM1215] |  |  | 21.9 nM | 40.7 nM |  | 
[N-]=[N+]=Nc1ccc(C(=O)c2cn(CCCCI)c3ccccc23)c2ccccc12 [AM2213] | 30 nM | 3 nM |  |  |  | 
Cc1c(C(=O)c2cccc3ccccc23)c2ccc(N=[N+]=[N-])cc2n1CC1CCCCN1C (racemic) [AM1231] |  |  | 34.2 nM | 31.2 nM |  | 
O=C(c1cccc2ccccc12)c1cn(CCCCCF)c2cc([N+](=O)[O-])ccc12 [AM1235] | 20.4 nM | 1.5 nM |  |  |  | high selectivity for the CB1 receptor
